Literature values as cited in PMC4153342 (Vaccine, 2014).

System: HLA-A2 on TAP-deficient/HLA-A2+ T2 cells
Conditions: previously reported

| Sequence | affinity for HLA-A2 in vitro |
| --- | --- |
| RLQGISPKI [p103] | have affinity for HLA-A2 |
| MTFGRLQGI [p99] | have affinity for HLA-A2 |
| AMTKLGFKA [p57] | have affinity for HLA-A2 |
| KASEKIFYV [p41] | have affinity for HLA-A2 |
